Laboratory results: ChEMBL document CHEMBL4706484, “Apigenin-rivastigmine hybrids as multi-target-directed liagnds for the treatment of Alzheimer's disease” (Eur J Med Chem, 2020)
Activity calls are given as the source filed them. The calls are words filed in the database; no cut-off is given here.

Key:
Acetylcholinesterase = Acetylcholinesterase (Homo sapiens, UniProt P22303); assay: Inhibition of human erythrocytes AChE using acetylthiocholine iodide as substrate measured after 15 mins by Ellman's method; type: tissue-based, Erythrocyte
Acetylcholinesterase, sequence (P22303 whole entry): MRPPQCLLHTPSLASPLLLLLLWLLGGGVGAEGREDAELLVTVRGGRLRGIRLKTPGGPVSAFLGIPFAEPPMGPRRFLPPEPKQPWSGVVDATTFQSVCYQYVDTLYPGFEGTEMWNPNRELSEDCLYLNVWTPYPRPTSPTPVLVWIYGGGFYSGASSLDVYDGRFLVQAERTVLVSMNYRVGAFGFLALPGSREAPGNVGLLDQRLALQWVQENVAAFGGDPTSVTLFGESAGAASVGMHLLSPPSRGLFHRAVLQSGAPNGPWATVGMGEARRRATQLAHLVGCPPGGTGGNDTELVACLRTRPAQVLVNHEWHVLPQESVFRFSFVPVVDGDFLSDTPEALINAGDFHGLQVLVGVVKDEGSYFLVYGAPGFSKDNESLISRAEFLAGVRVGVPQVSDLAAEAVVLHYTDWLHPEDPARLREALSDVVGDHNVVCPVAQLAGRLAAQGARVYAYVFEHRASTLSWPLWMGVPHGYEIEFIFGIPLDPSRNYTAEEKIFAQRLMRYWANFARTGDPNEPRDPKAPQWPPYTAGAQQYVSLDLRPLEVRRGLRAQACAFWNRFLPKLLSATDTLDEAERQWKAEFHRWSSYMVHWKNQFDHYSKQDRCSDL

Cholinesterase [1] = biological target: T1, Cholinesterase (Homo sapiens, UniProt P06276); assay: Pseudo-irreversible inhibition of human serum BChE assessed as enzyme recovery activity at IC50 using diluted compound relative to control; type: cell-free; design: scale not given: the % may be the effect or the level left
T1 sequence (P06276 whole entry): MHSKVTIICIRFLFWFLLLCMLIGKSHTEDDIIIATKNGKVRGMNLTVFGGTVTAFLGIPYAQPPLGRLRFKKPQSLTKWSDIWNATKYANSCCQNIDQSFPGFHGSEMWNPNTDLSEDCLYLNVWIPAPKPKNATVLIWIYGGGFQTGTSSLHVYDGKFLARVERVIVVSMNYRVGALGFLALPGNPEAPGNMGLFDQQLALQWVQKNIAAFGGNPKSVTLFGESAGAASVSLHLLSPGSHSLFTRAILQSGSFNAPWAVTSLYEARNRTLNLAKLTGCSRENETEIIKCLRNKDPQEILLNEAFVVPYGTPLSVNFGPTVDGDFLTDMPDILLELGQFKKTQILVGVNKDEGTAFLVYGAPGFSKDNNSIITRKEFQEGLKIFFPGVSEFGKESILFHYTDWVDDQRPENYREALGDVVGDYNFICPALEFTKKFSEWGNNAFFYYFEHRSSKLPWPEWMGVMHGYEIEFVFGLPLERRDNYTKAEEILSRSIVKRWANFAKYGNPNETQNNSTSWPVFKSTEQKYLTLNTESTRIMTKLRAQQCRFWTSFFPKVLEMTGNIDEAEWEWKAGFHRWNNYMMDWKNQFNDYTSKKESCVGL

Cholinesterase [2] = biological target: T1, Cholinesterase; assay: Pseudo-irreversible inhibition of human serum BChE assessed as enzyme recovery activity at 0.1 times IC50 measured immediately using diluted compound; type: cell-free; design: scale not given: the % may be the effect or the level left
Cholinesterase [3] = biological target: T1, Cholinesterase; assay: Pseudo-irreversible inhibition of human serum BChE assessed as enzyme recovery activity at 0.1 times IC50 measured at 240 mins using diluted compound relative to basal level; type: cell-free; design: scale not given: the % may be the effect or the level left
[4] = biological target: Amyloid-beta precursor protein (Homo sapiens) (UniProt P05067); assay: Inhibition of self-induced amyloid beta (1 to 42) (unknown origin) aggregation at 25 uM measured after 24 hrs by TEM analysis
Amyloid-beta precursor protein (Homo sapiens), sequence (P05067 whole entry): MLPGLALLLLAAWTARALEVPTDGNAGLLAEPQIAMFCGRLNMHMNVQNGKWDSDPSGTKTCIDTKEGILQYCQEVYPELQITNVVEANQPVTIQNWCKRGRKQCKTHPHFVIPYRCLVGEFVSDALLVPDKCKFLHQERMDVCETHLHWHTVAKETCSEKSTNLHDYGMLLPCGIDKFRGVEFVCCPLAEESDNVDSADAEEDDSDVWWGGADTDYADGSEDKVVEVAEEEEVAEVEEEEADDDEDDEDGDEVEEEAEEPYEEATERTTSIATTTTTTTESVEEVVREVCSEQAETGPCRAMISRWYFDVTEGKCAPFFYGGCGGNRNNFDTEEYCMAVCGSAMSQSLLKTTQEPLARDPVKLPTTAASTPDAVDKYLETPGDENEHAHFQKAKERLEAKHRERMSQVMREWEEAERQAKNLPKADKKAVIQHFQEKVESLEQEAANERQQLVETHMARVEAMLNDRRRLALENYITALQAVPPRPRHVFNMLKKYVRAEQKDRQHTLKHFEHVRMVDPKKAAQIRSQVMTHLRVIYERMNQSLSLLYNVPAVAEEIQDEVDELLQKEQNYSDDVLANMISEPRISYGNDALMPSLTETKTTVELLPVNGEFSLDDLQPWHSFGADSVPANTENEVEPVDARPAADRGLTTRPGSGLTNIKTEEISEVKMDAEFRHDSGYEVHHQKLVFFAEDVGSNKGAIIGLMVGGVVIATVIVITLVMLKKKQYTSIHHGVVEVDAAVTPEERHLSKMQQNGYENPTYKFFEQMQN

[5] = biological target: Amyloid-beta precursor protein (Homo sapiens) (UniProt P05067); assay: Disaggregation of self-induced amyloid beta (1 to 42) (unknown origin) preformed fibrils at 25 uM measured after 48 hrs by TEM analysis
PC-12 = assay: Neuroprotective activity against H2O2-induced cell injury in rat PC-12 cells assessed as increase in cell viability causing decrease in LDH content preincubated for 2 hrs followed by H2O2 addition and measured after 24 hrs by LDH assay; type: functional, cell-based; settings: dose 5-10 µM, time 26.0 hrs
SH-SY5Y = assay: Neuroprotective activity against amyloid beta (1 to 42 residues)-induced cell injury in human SH-SY5Y cells assessed as cell viability at 10 uM preincubated for 2 hrs followed by H2O2 addition and measured after 24 hrs by MTT assay (reference value: 52.3 %); type: functional; settings: time 26 hrs, read-out: Activity
[6] = Metal chelating activity assessed as Cu2+-compound complex formation by measuring absorption wavelength at 37.5 uM in presence of 37.5 uM CuCl2 by UV-Vis spectroscopic analysis
[7] = Disaggregation of Copper-induced amyloid beta (1 to 42) (unknown origin) preformed fibrils measured after 48 hrs by TEM analysis
[8] = Cytotoxicity against human L02 cells assessed as cell viability at 6.25 uM measured after 72 hrs by MTT assay relative to control; type: cell-based; settings: read-out: Activity
[9] = Cytotoxicity against human L02 cells assessed as cell viability at 25 uM measured after 72 hrs by MTT assay relative to control; type: cell-based; settings: read-out: Activity
[10] = Cytotoxicity against human L02 cells assessed as cell viability at 50 uM measured after 72 hrs by MTT assay relative to control; type: cell-based; settings: read-out: Activity
[11] = Permeability of the compound in PBS/EtOH (70:30) at 100 ug/ml by PAMPA-BBB assay; type: ADME; settings: dose 100 µg/ml, read-out: permeability
[12] = Acute toxicity in 2 dpf zebrafish assessed as absent blood flow at 1.39 to 12.5 ug/ml measured after 3 days; type: tissue-based, Danio rerio; settings: 72 h, dose 1.39-12.5 µg/ml, time 3 day
[13] = Acute toxicity in 2 dpf zebrafish assessed as short or misshapen jaw at 1.39 to 12.5 ug/ml measured after 3 days; design: species or system Danio rerio; settings: in vivo, 72 h, dose 1.39-12.5 µg/ml, time 3 day
[14] = Acute toxicity in 2 dpf zebrafish assessed as small or misshapen eyes at 1.39 to 12.5 ug/ml measured after 3 days; design: species or system Danio rerio; settings: in vivo, 72 h, dose 1.39-12.5 µg/ml, time 3 day
[15] = Acute toxicity in 2 dpf zebrafish assessed as abnormal liver size at 1.39 to 12.5 ug/ml measured after 3 days; design: species or system Danio rerio; settings: in vivo, 72 h, dose 1.39-12.5 µg/ml, time 3 day
[16] = Acute toxicity in 2 dpf zebrafish assessed as dark brown liver at 1.39 to 12.5 ug/ml measured after 3 days; design: species or system Danio rerio; settings: in vivo, 72 h, dose 1.39-12.5 µg/ml, time 3 day
[17] = Acute toxicity in 2 dpf zebrafish assessed as kidney edema at 1.39 to 12.5 ug/ml measured after 3 days; design: species or system Danio rerio; settings: in vivo, 72 h, dose 1.39-12.5 µg/ml, time 3 day
[18] = Acute toxicity in 2 dpf zebrafish assessed as abnormal intestine at 1.39 to 12.5 ug/ml measured after 3 days; type: tissue-based, Danio rerio; settings: in vivo, 72 h, dose 1.39-12.5 µg/ml, time 3 day
[19] = Toxicity in 3 dpf zebrafish model of AlCl3-induced AD at 12.5 to 200 microg/ml; design: species or system Danio rerio; settings: in vivo, dose 12.5-200 µg/ml
Danio rerio [20] = species on record: Danio rerio; assay: Antialzheimer activity against 3 dpf zebrafish model of AlCl3-induced AD assessed as change in motility distance at 4.2 ug/ml (reference value: 5204 mm); type: functional; settings: dose 4.2 µg/ml
Danio rerio [21] = species on record: Danio rerio; assay: Antialzheimer activity against 3 dpf zebrafish model of AlCl3-induced AD assessed as change in motility distance at 12.5 ug/ml (reference value: 5204 mm); type: functional; settings: dose 12.5 µg/ml
Danio rerio [22] = species on record: Danio rerio; assay: Antialzheimer activity against 3 dpf zebrafish model of AlCl3-induced AD assessed as motility by measuring change in speed at 1.4 ug/ml (reference value: 1.05 mm/s); type: functional; settings: dose 1.4 µg/ml
Danio rerio [23] = species on record: Danio rerio; assay: Antialzheimer activity against 3 dpf zebrafish model of AlCl3-induced AD assessed as motility by measuring change in speed at 12.5 ug/ml (reference value: 1.05 mm/s); type: functional; settings: dose 12.5 µg/ml
Danio rerio [24] = species on record: Danio rerio; assay: Antialzheimer activity against 3 dpf zebrafish model of AlCl3-induced AD assessed as motility by measuring efficacy on speed change at 4.2 ug/ml relative to control; type: functional; settings: dose 4.2 µg/ml
Danio rerio [25] = species on record: Danio rerio; assay: Protection against amyloid beta (1 to 40 residues)-induced vascular injury in transgenic zebrafish assessed as vascular injury rate at 1.4 ug/ml (reference value: 73.3 %); type: functional; settings: dose 1.4 µg/ml
Danio rerio [26] = species on record: Danio rerio; assay: Protection against amyloid beta (1 to 40 residues)-induced vascular injury in transgenic zebrafish assessed as vascular injury rate at 4.2 ug/ml (reference value: 73.3 %); type: functional; settings: dose 4.2 µg/ml
Danio rerio [27] = species on record: Danio rerio; assay: Protection against amyloid beta (1 to 40 residues)-induced vascular injury in transgenic zebrafish assessed as efficacy on motility at 12.5 ug/ml relative to control; type: functional; settings: dose 12.5 µg/ml
[28] = Acute toxicity in Kunming mouse assessed as abnormal behavior at 1000 mg/kg; type: organism-based; settings: in vivo
Mus musculus [29] = assay: Cognitive enhancing effect in scopolamine-induced Kunming mouse model of memory impairment assessed as effect on total arm entries at 5 to 20 mg/kg by Y-maze test; type: functional, organism-based; settings: dose 5-20 mg/kg
Mus musculus [30] = assay: Antialzheimer activity in scopolamine-induced Kunming mouse model of memory impairment assessed as Q30 bases ratio (raw data) in brain hippocampus at 10 mg/kg by illumina sequencing method (reference value: 93.53 %); type: functional
Mus musculus [31] = assay: Antialzheimer activity in scopolamine-induced Kunming mouse model of memory impairment assessed as total mapped in brain hippocampus at 10 mg/kg by illumina sequencing method (reference value: 97.13 %); type: functional
Mus musculus [32] = assay: Antialzheimer activity in scopolamine-induced Kunming mouse model of memory impairment assessed as uniquely mapped in brain hippocampus at 10 mg/kg by illumina sequencing method (reference value: 94.54 %); type: functional
[33] = Drug metabolism in rat liver microsomes assessed as metabolite formation by UPLC-MS/MS analysis; type: ADME, Microsome
[34] = Drug metabolism in human liver microsomes assessed as metabolite formation by UPLC-MS/MS analysis; type: ADME, Microsome

Compound: CCN(C)C(=O)Oc1ccc(-c2cc(=O)c3c(O)cc(OC(=O)N(C)CC)cc3o2)cc1
- IC50 (Acetylcholinesterase): 6.8 µM
- Activity (Cholinesterase [1]): 54.1%
- Activity (Cholinesterase [2]): 44.8%
- Activity (Cholinesterase [3]): 71.7%
- inhibition [4]: Active
- Activity [5]: Active
- Activity (PC-12): Dose-dependent effect
- viability at 10 µM (SH-SY5Y): 72.3%
- Activity [6]: 398 nm
- Activity [7]: Active
- viability at 72 h, 6.25 µM [8]: 99%
- viability at 72 h, 25 µM [9]: 83.9%
- viability at 72 h, 50 µM [10]: 59.7%
- Papp at 100 ug/ml [11]: 15.5 ×10⁻⁶ cm/s
- Activity [12]: Non-Toxic
- Activity [13]: Non-Toxic
- Activity [14]: Non-Toxic
- Activity [15]: Non-Toxic
- Activity [16]: Non-Toxic
- Activity [17]: Non-Toxic
- Activity [18]: Non-Toxic
- Activity [19]: Non-Toxic
- Activity (Danio rerio [20]): 6562 mm
- Activity (Danio rerio [21]): 6733 mm
- Activity (Danio rerio [22]): 1.8 millimeter/sec
- Activity (Danio rerio [23]): 2.17 millimeter/sec
- Efficacy (Danio rerio [24]): 72%
- Activity (Danio rerio [25]): 60%
- Activity (Danio rerio [26]): 53%
- Efficacy (Danio rerio [27]): 64%
- Activity [28]: Non-Toxic
- Activity (Mus musculus [29]): inactive
- Activity (Mus musculus [30]): 92.76%
- Activity (Mus musculus [31]): 96.87%
- Activity (Mus musculus [32]): 93.76%
- Drug metabolism [33]: Metabolite_Detected
- Drug metabolism [34]: Metabolite_Detected
